Assay results from US20250215087A1, “COMBINATION THERAPY OF KRAS INHIBITOR AND TREG DEPLETING AGENT” (Bristol-Myers Squibb Company, priority 2023, published 2025).

Assays:
[1] = test system: Lewis Lung (3LL) carcinoma model; details: van Maldegem et al. 2021, cited from earlier work
[2] = test system: Lewis Lung (3LL) carcinoma model; assay: Imaging mass cytometry of Lewis Lung (3LL) carcinoma lungs after 7 days MRTX1257 or Vehicle; spatial community analysis; assay type: in vivo, C57BL/6 mice
Description: Two datasets of IMC data generated from an in vivo experiment in which the Lewis Lung (3LL) carcinoma model was treated with the KRAS-G12C inhibitor MRTX1257 for 7 days prior to harvesting of the lungs were published previously in van Maldegem et al. (2021), Nat. Commun. 12:5906 (dataset 1) and Mugarza et al. (2022), Sci. Adv. 8: eabm8780 (dataset 2).
Following 3 weeks, mice were treated with either 50 mg/kg MRTX1257 or Vehicle for 7 consecutive days. Mice were sacrificed on day 8 and lungs were harvested and frozen. Tumors of 3 mice from each treatment group for dataset 1 and 4 mice from each treatment group for dataset 2 were processed for imaging mass cytometry. Tissue slices were stained with a cocktail of antibodies conjugated to heavy metal isotopes and images were obtained using a Hyperion Imaging Mass Cytometer (Standard BioTools). Different antibody panels were used for the generation of datasets 1 and 2 (FIGS. 1A and 1B). In total, 6 images were acquired from both Vehicle and MRTX1257 groups for dataset 1, and the Vehicle group for dataset 2, and 5 images were acquired from the MRTX1257 group for dataset 2.
For further details on the in vivo study and IMC, including tissue processing, antibody staining, imaging acquisition and cell typing, reference is generally made to the Materials and Methods and Supplementary Materials provided by van Maldegem et al. (2021) and Mugarza et al. (2022), which are herewith incorporated by reference.
As described in van Maldegem et al. (2021), cellular neighbors were identified during segmentation using the CellProfiler module ‘Measure Object Neighbours’, following steps to identify individual cells. Neighbors were identified if a cell's boundary was within 15 μm (pixels) of the cell boundary of interest. Neighbor information was obtained for every cell object in each tissue.
Each ‘neighborhood’ was identified as a single cell and its local neighbors; defined by 15 μm object relationship output data from segmentation.
Expression values for each marker were normalized to the mean intensity of Xenon134. Following this, the data for each image across both treatment groups was concatenated, creating a size of 282,837 cells for dataset 1 and 626,070 cells for dataset 2. Each channel was then scaled to the 99th percentile. […] These clusters formed the basis to identify cell types present in the tissue, including tumor, lymphocytes, myeloid cells, fibroblasts, and endothelium. More details are available in van Maldegem et al., 2021 for dataset 1 and Mugarza et al., 2022 for dataset 2.
As described in van Maldegem et al., 2021, the neighbourhood method developed by Bodenmiller (https://github.com/BodenmillerGroup/neighbourhood; Schapiro et al., 2017, histoCAT: analysis of cell phenotypes and interactions in multiplex image cytometry data. Nat Methods 14, 873-876) was used to identify the enrichment of cell types within the 15-pixel neighborhood of each cell compared to random permutations of events, with a modification of only calculating enrichment in the CD8^+ T cell neighborhood, separated by community and using 1000 rounds of permutation. This was carried out for the community names T cell/normal adjacent community (T/NA), T cell/Type 1 macrophage community (T/M1), T cell/Dendritic cell community (T/DC), T cell/Type 2 macrophage community 1 (T/M2_1) and T cell/Type 2 macrophage community 2 (T/M2_2) communities for the MRTX1257 treatment setting.
Neighborhood enrichment analysis was also used for exploring cell pair relationships in the presence or absence of Tregs within the T/DC and T/M2_2 communities following MRTX treatment. Enrichment scores were only deemed statistically significant if the p-value when comparing real neighbors to randomized neighbors was ≤0.01.

[3] = test system: orthotopic Lewis lung (3LL) NSCLC tumors; details: seven consecutive days of treatment; van Maldegem et al. 2021; cited from earlier work
KRAS-G12C mutant NSCLC = details: clinical trials; cited from earlier work
advanced melanoma = details: Hodi et al. 2010; cited from earlier work
CCR4 = molecular target: T1, CCR4 (Homo sapiens, UniProt P51679); details: Kurose et al. 2015; cited from earlier work
T1 construct: host or cells: Tregs, conventional CD4+ and CD8+ T cells (in vivo, cited study)
T1 sequence (P51679 1-360): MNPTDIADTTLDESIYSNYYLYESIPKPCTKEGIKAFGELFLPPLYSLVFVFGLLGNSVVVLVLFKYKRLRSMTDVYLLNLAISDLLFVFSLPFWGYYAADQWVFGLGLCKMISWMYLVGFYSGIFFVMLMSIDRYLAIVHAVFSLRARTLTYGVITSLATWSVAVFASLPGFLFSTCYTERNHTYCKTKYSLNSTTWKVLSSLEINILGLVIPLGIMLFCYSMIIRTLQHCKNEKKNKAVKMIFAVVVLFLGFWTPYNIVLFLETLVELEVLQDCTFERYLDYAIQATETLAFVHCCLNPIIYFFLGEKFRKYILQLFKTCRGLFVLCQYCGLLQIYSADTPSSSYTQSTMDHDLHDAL

## C=CC(=O)N1CCN(c2nc(OC[C@@H]3CCCN3C)nc3c2CCN(c2cccc4cccc(C)c24)C3)C[C@@H]1CC#N [MRTX1257]
[1]; 50 mg/kg MRTX1257 for 7 days vs Vehicle
  immune phenotype of the tumor microenvironment: remodelled into a more inflammatory immune infiltrated TME
[1]; previously described
  type 2 macrophage number and activation markers: increased in cell number and upregulated activation markers such as PD-L1 and MHC-II
[2]; T/DC community, 'No Tregs' neighborhoods, FIG. 25
  frequency of c-casp3+ tumor cells in the CD8+ T cell close neighborhood: increased
[2]; T/DC community, dataset 2, FIG. 19A
  Ki67 expression on CD4+ and CD8+ T cells: significant increase
[2]; T/DC community, dataset 2, FIG. 19B
  occurrences of a c-casp3+ tumor cell in the 15-pixel neighborhood of a CD8+ T cell: increased
[2]; T/DC community, vs random permutation, FIG. 21A
  images with CD4+ T cells and dendritic cells significantly enriched in the neighborhood of a CD8+ T cell: at least five out of the six images
[2]; T/DC community, FIG. 21A
  images with Treg cells significantly enriched in the neighborhood of CD8+ T cells: 3 out of the 6
[2]; T/DC, T/M2_1 and T/M2_2 communities, most pronounced in T/DC, FIGS. 16A-16B
  mean expression of PD-1 on CD8+ T cells: an increase occurred
[2]; T/DC, T/M2_1 and T/M2_2 communities, FIGS. 13A-13C
  PD-L1 expression on dendritic cells (accompanied by high CD86): increased PD-L1 expression
[2]; dataset 1, MRTX1257 vs Vehicle, FIG. 5
  interactions between tumor cells and neutrophils (communities 5, 13, 14, 15): lost or dispersed
[2]; dataset 2, highest in T/DC community, FIG. 14
  mean expression of CXCL9 on dendritic cells and macrophages: increased
[2]; mainly in the T/DC community, FIG. 16D
  mean expression of PD-1 on regulatory T cells: higher PD-1 expression
[2]; most notably in T/DC and T/M2_2 communities, FIG. 22
  count of regulatory T cells: increased in size
[2]; top 5 CD8+ T cell rich communities, MRTX1257 vs Vehicle, FIG. 11
  spatial distribution and neighborhood environment of CD8+ T cells: shift in spatial distribution and neighborhood environment
[2]; tumor-associated communities following MRTX treatment, FIG. 17B
  percentage of PD-1+ CD8+ T cells that are positive for LAG-3: ~30%
[3]
  tumor regression and growth: tumors did not regress although tumor growth was inhibited

## C=CC(=O)N1CCN(c2nc(=O)n(-c3c(C)ccnc3C(C)C)c3nc(-c4c(O)cccc4F)c(F)cc23)[C@@H](C)C1 [sotorasib]
KRAS-G12C mutant NSCLC
  patients achieving temporary disease control: 80%

## Ipilimumab: human anti-CTLA-4 antibody with IgG1 constant region, SEQ ID NO: 150 and 151
Advanced melanoma
  overall survival: improvement in overall survival

## mogamulizumab: humanized, afucosylated monoclonal antibody targeting CC chemokine receptor 4 (CCR4)
CCR4
  CD8+ T cell numbers: modest reductions
  Treg depletion: achieved
  conventional CD4+ T cells: significant depletion
